pIC50: −log10 of the molar value. Blank lines part the entries; values can stand above or below the compound they belong to.
Legend:
[1] = biological target: Phosphodiesterase 4 (Homo sapiens, UniProt P27815+Q08499+Q07343+Q08493); assay: Inhibition of phosphodiesterase 4 (PDE4) from U937 cells; type: cell-based; conditions: u-937
[2] = test system: Rattus norvegicus; assay: Inhibition of lipopolysaccharide-induced tumor necrosis factor alpha production in rats at 10 mg/kg peroral dose (n=7); type: functional; conditions: route oral
[3] = organism: Rattus norvegicus; assay: Inhibition of gastric emptying in rats by peroral dose; type: functional; conditions: Stomach, po, read-out: ID50 (the source's name)
[4] = test system: Cavia porcellus; assay: In vivo inhibition of slow reacting substance of anaphylaxis (SRS-A) mediated bronchoconstriction in guinea pig; type: functional, organism-based; conditions: Lung
[5] = test system: Rattus norvegicus; assay: Inhibition of lipopolysaccharide-induced tumor necrosis factor alpha production in rats by peroral administration; type: functional; conditions: po, read-out: ID50 (the source's name)
[6] = test system: Rattus norvegicus; assay: Inhibition of lipopolysaccharide-induced tumor necrosis factor alpha production in rats at 3 mg/kg peroral dose (n=7); type: functional; conditions: route oral
[7] = test system: Mustela putorius furo; assay: Emetic effect in fasted ferrets at 30 mg/kg peroral dose (n=2); type: functional; conditions: route oral
[8] = test system: Mustela putorius furo; assay: Emetic effect in fasted ferrets at 3 mg/kg peroral dose (n=2); type: functional; conditions: route oral
[9] = organism: Homo sapiens; assay: Inhibition of TNF-alpha production in human whole blood; type: functional, organism-based
[10] = test system: Rattus norvegicus; assay: Inhibition of lipopolysaccharide-induced tumor necrosis factor alpha production in rats by peroral administration (n=7); type: functional; conditions: po, read-out: ID50 (the source's name)
[11] = test system: Mustela putorius furo; assay: Emetic effect in fasted ferrets at 10 mg/kg peroral dose (n=3); type: functional; conditions: route oral
[12] = test system: Cavia porcellus; assay: In vivo inhibition of SRS-A mediated bronchoconstriction in guinea pig at 10 mg/kg peroral dose; type: functional; conditions: Lung, route oral
[13] = test system: Rattus norvegicus; assay: Inhibition of gastric emptying in rats […] peroral dose; type: functional; conditions: Stomach, route oral, read-out: ID50 (the source's name)
[14] = test system: Mustela putorius furo; assay: Emetic effect in fasted ferrets at 10 mg/kg peroral dose (n=2); type: functional; conditions: route oral

SMILES: Cc1nn(C)c2ncc(C(N)=O)c(Nc3ccccc3)c12
IC50 [1]: 36 nM
inhibition in vivo at 10 mg/kg [2]: 48%

SMILES: Cc1nn(C)c2ncc(C(N)=O)c(Nc3cccc(OC4CCCCC4)c3)c12
IC50 [1]: > 100 nM

SMILES: Cc1nn(C)c2ncc(C(N)=O)c(Nc3cccc(O)c3)c12
IC50 [1]: 97 nM
inhibition in vivo at 10 mg/kg [2]: 40%

SMILES: COC(=O)N1CC[C@H](Oc2cccc(Nc3c(C(N)=O)cnc4c3c(C)nn4C)c2)C1
No. of ferrets [7]: 2
No. of ferrets [8]: 0
IC50 [1]: 10 nM
pIC50 [9]: 5.32
ED50 [10]: 1 mg/kg
No. of ferrets [11]: 0
ED50 [3]: 15 mg/kg
inhibition in vivo at 10 mg/kg [12]: 45%

SMILES: Cc1nn(C)c2ncc(C(N)=O)c(Nc3cccc(OC4CCC4)c3)c12
IC50 [1]: > 100 nM

SMILES: Cc1nn(C)c2ncc(C(N)=O)c(Nc3cccc(O[C@H]4CCN(S(C)(=O)=O)C4)c3)c12
IC50 [1]: 250 nM

Further lines, with some results ahead:

pIC50 [4]: 5.35
SMILES: COc1ccc([C@]2(C#N)CC[C@@H](C(=O)O)CC2)cc1OC1CCCC1 [CILOMILAST]
ED50 [3]: 5.7 mg/kg
ED50 [5]: 1.7 mg/kg

IC50 [1]: 76 nM
SMILES: COc1ccccc1Nc1c(C(N)=O)cnc2c1c(C)nn2C
inhibition in vivo at 10 mg/kg [2]: 68%

IC50 [1]: > 300 nM
SMILES: CC(=O)N1CC[C@H](Oc2cccc(Nc3c(C(N)=O)cnc4c3c(C)nn4C)c2)C1

IC50 [1]: > 300 nM
SMILES: Cc1nn(C)c2ncc(C(N)=O)c(Nc3cccc(O[C@H]4CCNC4)c3)c12

IC50 [1]: > 300 nM
SMILES: Cc1nn(C)c2ncc(C(N)=O)c(Nc3cccc(O[C@H]4CCN(C(=O)OC(C)(C)C)C4)c3)c12

IC50 [1]: 85 nM
SMILES: Cc1nn(C)c2ncc(C(N)=O)c(Nc3cccc(C#N)c3)c12
inhibition in vivo at 3 mg/kg [6]: 2%

IC50 [1]: > 100 nM
SMILES: Cc1nn(C)c2ncc(C(N)=O)c(Nc3cccc(OC4CCCC4)c3)c12
inhibition in vivo at 10 mg/kg [2]: 39%

IC50 [1]: 5 nM
pIC50 [9]: 5.52
pIC50 [4]: 5.17
SMILES: COc1cccc(Nc2c(C(N)=O)cnc3c2c(C)nn3C)c1
No. of ferrets [7]: 1
No. of ferrets [8]: 0
ED50 [13]: 23 mg/kg
ED50 [10]: 2.4 mg/kg
No. of ferrets [14]: 0

IC50 [1]: > 100 nM
SMILES: COc1ccc(Nc2c(C(N)=O)cnc3c2c(C)nn3C)cc1
